Results from ChEMBL document CHEMBL4808206, “Novel Substituted 3,4-Dihydroquinazoline Derivatives for Treating Hepatitis B Virus Infection” (ACS Med Chem Lett, 2021).
pIC50: −log10 of the molar value.

What follows are compounds tested on Hepatitis B virus (assay: Antiviral activity against HBV infected in human HepDES19 cells assessed as reduction in HBV cccDNA production by measuring inhibition of HBeAg secretion incubated for 5 days by ELISA). Conditions: HepDES19, 120 h.
Format: functional, organism-based

Compared with CC1(C(=O)O)NC(c2ccc(Br)cc2)=Nc2c(Cl)cccc21 (stereo unspecified), NC(=O)C1NC(c2ccc(Br)cc2)=Nc2c(Cl)cccc21 (stereo unspecified) is 0.26 log units higher in pIC50: 6.89 for the first, 7.15 for the second.

NC(=O)C1NC(c2cccc(Br)c2)=Nc2cc(C(F)(F)F)ccc21 (stereo unspecified) and COC(=O)C1NC(c2ccc(Br)cc2)=Nc2c(Cl)cccc21 (stereo unspecified) are within 0.2 log units of each other in pIC50: 6.59 for the first, 6.48 for the second.

Going from COc1ccc2c(c1)CCN(C1=Nc3c(Cl)cccc3C(C)N1)C2=O (stereo unspecified) to O=C(O)C1NC(c2ccc(N3CCCC3)nc2)=Nc2c(Cl)cccc21 (stereo unspecified), the pIC50 falls from 7.57 to 7.30 (0.27 log units).
